How the values were obtained:
[1] = Counterscreening panel (MDS Pharma Services); conditions: 5 μM, data not shown
Method: (§1) Active recombinant caspase-1, -3, -4, -7 and -8 were prepared as described previously. Caspase-2 was purchased from Biomol (Exeter, UK), caspase-6 from BD Biosciences (Oxford, UK), caspase-9 from Europa Bioproducts Ltd. (Cambridge, UK) and caspase-10 from Chemicon International Inc. (Harrow, UK). Cathepsin B and granzyme B were purchased from Merck Biosciences Ltd. (Nottingham, UK). Fluorogenic protease substrates were purchased from Bachem Ltd. (St. Helens, UK). All reactions were carried out at 37°C using a Molecular Devices (Wokingham, UK) Gemini plate-reader at 460 nm (excitation wavelength of 390 nm). Caspase inhibition assays were conducted, with minor modifications, as described by Margolin and colleagues. Irreversible kinetics were analysed by calculations of second-order inactivation rate constants (k) using GraphPad (La Jolla, CA, USA) Prism 4.0 software. A larger number for an inactivation rate constant indicates a greater degree of inactivation. To determine the inhibitory effect on cathepsin B, 4.25 nM of the enzyme were added to 250 μM z-RR-AMC in 10 mM 2-morpholino-ethanesulfonic acid pH 6.0, 1 mM DTT, 1 mM EDTA and 0.03% Brij35 in the presence or absence of VX-166 and the reaction monitored continuously over 15 minutes. Granzyme B was assayed, with minor modifications, as described by Thornberry and colleagues. […]

[2] = test system: Jurkat cells; experiment: Staurosporine induced apoptosis in Jurkat cells, Annexin V; type: cell-based; conditions: Human Jurkat cell line/Annexin V, n = 4, read-out: IC50, inhibition of apoptosis
Method: Jurkat cells were obtained from LGC Standards (Teddington, UK) and were grown in RPMI 1640, 10% FCS, 2 mM L-glutamine, 100 U/ml penicillin and 0.1 mg/ml streptomycin (all from Sigma Aldrich Ltd., Poole, UK) at 37°C in 5% CO2/95% humidity. Receptor- or stress-mediated apoptosis (2 × 10^5 cells/ml) was induced by addition of either anti-Fas antibody CH-11 (10 ng/ml, Millipore UK Ltd., Watford, UK), TNF-α (20 ng/ml, R&D Systems, Abingdon, UK) with cycloheximide (112 ng/ml, Sigma Aldrich Ltd., Poole, UK) or staurosporine (350 ng/ml, Sigma Aldrich Ltd., Poole, UK). VX-166 was diluted into DMSO (10 mM), further diluted in media and added at a range of concentrations. Cells were then incubated for 18 hours. Apoptotic cells were then labelled with Cy5-conjugated Annexin-V (BD Biosciences, Oxford, UK) and detected using a FMAT™ 8100 Fluorimetric Microassay Technology Reader (Applied Biosystems, Warrington, UK). For the experiments using anti-Fas antibody, apoptosis was additionally measured using a Cell Death Detection ELISA kit (Roche Diagnostics Ltd., Lewes, UK) following the manufacturer's instructions.

[3] = molecular target: T1, granzyme B (Homo sapiens, UniProt P10144); experiment: Granzyme B counter-screen; type: biochemical; conditions: at 50 μM
T1 construct: purchased Merck Biosciences Ltd. (Nottingham, UK)
T1 sequence (P10144 21-247, species assumed): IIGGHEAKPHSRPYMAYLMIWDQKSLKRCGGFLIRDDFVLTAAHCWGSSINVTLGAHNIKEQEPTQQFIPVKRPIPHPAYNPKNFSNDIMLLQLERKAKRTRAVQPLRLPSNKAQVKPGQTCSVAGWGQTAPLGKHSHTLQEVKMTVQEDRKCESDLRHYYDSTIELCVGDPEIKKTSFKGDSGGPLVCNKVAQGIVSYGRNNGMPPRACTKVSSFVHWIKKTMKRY
Method: as §1

[4] = test system: IL-2 release from peripheral blood mononuclear cells; experiment: IL-2 release from anti-CD3/CD28 stimulated PBMC; type: cell-based, human; conditions: at 100 μM
Method: PBMC from healthy donors were isolated as described above. To the wells of a 96-well plate previously coated with 1.5 μg/ml anti-hCD3 (Serotec, Kidlington, UK), 5 × 10^5 cells/ml and 1 μg/ml anti-hCD28 (BD Biosciences, Oxford, UK) were added. Plates were then incubated for 24 hours in the presence or absence of VX-166 or the calcineurin inhibitor FK506 (Merck Biosciences Ltd., Nottingham, UK). IL-2 release into the supernatant was subsequently determined by ELISA (R&D Systems, Abingdon, UK) following the manufacturer's instructions.

[5] = test system: PBMC; experiment: PBMC viability (MTS assay); type: cell-based, human; conditions: MTS assay conducted simultaneously with cytokine release assays
Method: Peripheral blood mononuclear cells (PBMC) from healthy donors were isolated by Ficoll-Paque gradient centrifugation from buffy coats obtained from the National Blood Transfusion Service (Bristol, UK). For IL-1β release, 5 × 10^5 cells/ml were then stimulated with 50 ng/ml lipopolysaccharide (LPS) from Escherichia coli (Sigma-Aldrich Ltd., Poole, UK) in the presence or absence of VX-166 and incubated for 18 hours. Secretion of IL-1β into the supernatant was determined by ELISA (R&D Systems, Abingdon, UK) following the manufacturer's instructions. For IL-18 release, 7.5 × 10^5 cells/ml were stimulated with 6.25 × 10^-4% (w/v) Staphylococcus aureus cell suspension (SAC; Sigma-Aldrich Ltd., Poole, UK) in the presence or absence of VX-166 and incubated overnight. The IL-18 content in the supernatants was quantified by ELISA (Caltag-MedSystems Ltd., Buckingham, UK) following the manufacturer's instructions. In both assays PBMC viability was assessed after the 18 hours incubation time using MTS assay (Promega UK Ltd., Southampton, UK) to ensure that the reduction in cytokine release was not caused by a cytotoxic effect of the compound.

## CCC(C(=O)NC(CC(=O)O)C(=O)COc1c(F)c(F)cc(F)c1F)n1cccc(NC(=O)OC)c1=O (centres unmarked) [VX-166]
[1]
  cross-reactivity in panel of 83 enzymes, ion channels and receptors (28 proteases): No significant cross-reactivity
[2]
  IC50: 255 ± 155 nM
[3]
  inhibitory activity against granzyme B: did not show any inhibitory activity
[4]
  inhibition of T-cell activation in vitro: partial inhibition
[5]
  cytotoxic effect in PBMC viability assay: not due to a cytotoxic effect

— paper PMC2784364, “VX-166: a novel potent small molecule caspase inhibitor as a potential therapy for sepsis” (Critical Care, 2009)
